According to the supplement of paper PMC13380429:

Key:
Conditions in all cases: 72 h
Caco-2 [1] = test: cell viability relative to DMSO; higher = less toxic
Calu-3 [2] = test: as above
HepG2 [3] = test: as above
U2OS [4] = test: as above
Vero E6 [5] = test: as above
Caco-2 [6] = test: relative viability EC50 (midpoint between 100% and the lowest measured viability); higher = less toxic
Calu-3 [7] = test: as above
HepG2 [8] = test: as above
U2OS [9] = test: as above
Vero E6 [10] = test: as above
Caco-2 [11] = test: drug sensitivity score (DSS) for viability; higher = more toxic; extreme values may be limits of the assay
Calu-3 [12] = test: as above
HepG2 [13] = test: as above
U2OS [14] = test: as above
Vero E6 [15] = test: as above

Row | SMILES | cell viability (Caco-2 [1]; 1 nM) [%] | cell viability (Caco-2 [1]; 10 nM) [%] | cell viability (Caco-2 [1]; 100 nM) [%] | cell viability (Caco-2 [1]; 1000 nM) [%] | cell viability (Caco-2 [1]; 10000 nM) [%] | cell viability (Calu-3 [2]; 1 nM) [%] | cell viability (Calu-3 [2]; 10 nM) [%] | cell viability (Calu-3 [2]; 100 nM) [%] | cell viability (Calu-3 [2]; 1000 nM) [%] | cell viability (Calu-3 [2]; 10000 nM) [%] | cell viability (HepG2 [3]; 1 nM) [%] | cell viability (HepG2 [3]; 10 nM) [%] | cell viability (HepG2 [3]; 100 nM) [%] | cell viability (HepG2 [3]; 1000 nM) [%] | cell viability (HepG2 [3]; 10000 nM) [%] | cell viability (U2OS [4]; 1 nM) [%] | cell viability (U2OS [4]; 10 nM) [%] | cell viability (U2OS [4]; 100 nM) [%] | cell viability (U2OS [4]; 1000 nM) [%] | cell viability (U2OS [4]; 10000 nM) [%] | cell viability (Vero E6 [5]; 1 nM) [%] | cell viability (Vero E6 [5]; 10 nM) [%] | cell viability (Vero E6 [5]; 100 nM) [%] | cell viability (Vero E6 [5]; 1000 nM) [%] | cell viability (Vero E6 [5]; 10000 nM) [%] | relative viability EC50 (Caco-2 [6]) [µM] | relative viability EC50 (Calu-3 [7]) [µM] | relative viability EC50 (HepG2 [8]) [µM] | relative viability EC50 (U2OS [9]) [µM] | relative viability EC50 (Vero E6 [10]) [µM] | drug sensitivity score (Caco-2 [11]) | drug sensitivity score (Calu-3 [12]) | drug sensitivity score (HepG2 [13]) | drug sensitivity score (U2OS [14]) | drug sensitivity score (Vero E6 [15])
1 | O=C(O)C(=O)CBr [3-bromopyruvate] | 95.5 | 97.1 | 96.5 | 97.2 | 97.9 | 102 | 98 | 105 | 98.9 | 94.2 | 104 | 92.1 | 100 | 99.7 | 101 | 97.7 | 99.4 | 98 | 102 | 104 | 96.7 | 96.6 | 96.9 | 96.7 | 92.8 | > 10 | > 10 | > 10 | > 10 | > 10 | 0 | 0 | 0 | 0 | 0
2 | CCCN[C@@H]1CCc2c(OC)cccc2[C@@H]1C [AJ76-(+)] | 104 | 97.8 | 96.4 | 86.8 | 96.7 | 100 | 95.9 | 96.8 | 96 | 114 | 88.5 | 100 | 103 | 103 | 94 | 102 | 105 | 95.7 | 95.9 | 98.8 | 97.8 | 104 | 96.6 | 99.6 | 91.3 | > 10 | > 10 | > 10 | > 10 | > 10 | 0 | 0 | 0 | 0 | 0
3 | COc1cnc(-c2ccc(Cn3c(CC(C)(C)C(=O)O)c(SC(C)(C)C)c4cc(OC[C@@H]5Cc6ccccc6N5C(C)=O)ccc43)cc2)nc1 [AM679] | 102 | 94 | 99 | 97 | 92.4 | 101 | 95.4 | 101 | 109 | 107 | 103 | 104 | 101 | 102 | 93.4 | 102 | 99.8 | 99.7 | 100 | 98.1 | 114 | 105 | 106 | 99.9 | 128 | > 10 | > 10 | > 10 | > 10 | > 10 | 0 | 0 | 0 | 0 | 0
